Where “and” joins values, the source holds several entries; their conditions need not be identical. Identical values can stand only once. Like-named read-outs stand apart in the source and are kept apart here.
How the values were obtained:
[1] = pharmacokinetic analysis after oral administration in SD rats; format: in vivo; conditions: 10 mg/kg based on vactosertib
Experimental: In order to confirm a change in plasma concentration in actual oral administration of the bentonite/vactosertib complex, a pharmacokinetic analysis test was performed using SD rats of about 7 weeks of age. The existing vactosertib powder, an aqueous solution dissolved with the vactosertib powder in a pH 3 buffer solution, and the bentonite/vactosertib complex were used as samples and a dose was set to 10 mg/kg based on the drug (that is, vactosertib) amount. Each sample was orally administered in rats and then the blood was collected by time, and preprocessed to analyze a plasma drug concentration.

[2] = elution test (drug release through semi-permeable membrane); format: physicochemical
Experimental: An elution test of vactosertib was performed to confirm a change in which the vactosertib was adsorbed onto bentonite and then released. At this time, in order to predict the drug release from the upper digestive tract and the lower digestive tract, the elution was performed under different pH conditions. To this end, the test was performed by using a 0.1 N HCl solution (pH 1.2), a 50 mM acetate buffer solution (pH 4.5), and a 50 mM phosphate buffer solution (pH 7.4) as eluates, respectively. At this time, in all the eluates, Tween80 was dissolved and used at a concentration of 0.1% to impart a sufficient elution environment of vactosertib. The vactosertib powder and the bentonite/vactosertib complex were formed to a dispersion to be 1 mg/mL based on the vactosertib concentration and 0.3 mL thereof was sealed in a semi-permeable membrane and then put in 30 mL of each eluate to perform the elution. Thereafter, each eluate was collected by 0.2 mL for each predetermined time, a drug concentration was analyzed to compare elution rates.

[3] = adsorption rate of vactosertib onto bentonite; format: physicochemical; conditions: vactosertib 0.4 mg/ml, bentonite 0.5 mg/mL, pH 1
Experimental: The adsorption rates of vactosertib and bentonite according to the pH of a solvent were evaluated. At this time, considering that the vactosertib was not dissolved in neutral, but stated to be dissolved in about 1 mg/mL from pH 3, a test was performed by setting a reaction pH to pH 1, pH 2, and pH 3. First, 10 mg/mL of the vactosertib was dissolved in a 0.1 N hydrochloric acid aqueous solution and diluted with a hydrochloric acid aqueous solution or a phosphate buffer solution (pH 1: 0.1 N hydrochloric acid aqueous solution, pH 2, pH 3: phosphate buffer solution) corresponding to each pH to adjust the concentration to 1 mg/mL. […] Thereafter, a drug concentration of a supernatant obtained by centrifugation (3,000 rpm, 5 minutes) was analyzed. Through this, the drug amount adsorbed onto the bentonite was indirectly calculated as shown in Equation 1 by removing the remaining drug amount in the supernatant from the entirely applied drug (vactosertib) to calculate an adsorption rate. […] In addition, a difference in adsorption rate according to the concentration of vactosertib was measured. […] In addition, a difference in adsorption rate according to an absolute concentration was measured.

interleukin 6 (IL-6) = assay: immunohistochemical IL-6 staining of large intestine tissue in DSS ulcerative colitis mouse model; format: in vivo, C57BL/6 mice; conditions: DSS 2% mice
Experimental: Animal tests were performed to confirm anti-inflammatory, anti-crypt cell damage, anti-ulcer, anti-edema, and anti-fibrosis effects of a vactosertib/bentonite complex using a mouse model of ulcerative colitis as one of inflammatory bowel diseases. C57BL/6 mice were selected as test animals, and in order to induce ulcerative colitis, a cycle in which an inflammation inducing substance, DSS was added in drinking water and supplied for 7 days, and then normal drinking water was supplied for 14 days was repeated. Such an inflammation inducing cycle was repeated 3 times to induce chronic inflammation, ulcer and fibrous conditions in the large intestine. […]
In order to observe an immunohistochemical change of a large intestine tissue, a tissue fixed to a 10% neutral buffer formalin solution was sliced, attached to a coating slide, and deparaffinized, and then stained, and IHC of reacting with antibodies IL-6 (Interleukin-6), α-SMA ((α-smooth muscle actin), and TGF-β (transforming growth factor beta) on each slide was requested to an external institute (Notus) and the test was performed. In an individual-specific tissue slide, three constant zones were specified and imaged 100 times, a stained portion to the total area was measured, and a mean value was calculated (Zen 2.3 blue edition, Carl Zeiss, Germany). […]

[4] = system: ulcerative colitis mouse model induced with DSS; assay: histopathological severity scores in ulcerative colitis mouse model induced with DSS; format: in vivo, C57BL/6 mice; conditions: DSS mice, Dunn's test
Experimental: Animal tests were performed to confirm anti-inflammatory, anti-crypt cell damage, anti-ulcer, anti-edema, and anti-fibrosis effects of a vactosertib/bentonite complex using a mouse model of ulcerative colitis as one of inflammatory bowel diseases. C57BL/6 mice were selected as test animals, and in order to induce ulcerative colitis, a cycle in which an inflammation inducing substance, DSS was added in drinking water and supplied for 7 days, and then normal drinking water was supplied for 14 days was repeated. Such an inflammation inducing cycle was repeated 3 times to induce chronic inflammation, ulcer and fibrous conditions in the large intestine. To test animal groups except for control groups, from 3 weeks after a first inflammation inducing cycle was elapsed, bentonite, vactosertib, or a vactosertib/bentonite complex was administered twice a day (10 am, 4 pm), 5 days a week, and for total 6 weeks. The bentonite per 1 kg of converted mouse weight was administered with 106.8 mg, the vactosertib was administered with 20.0 mg, and the complex was administered with 126.8 mg. At this time, as the vactosertib/bentonite complex, the complex prepared in Test Example 5 was used. For each test group used in ulcerative colitis animal tests, inflammation inducing substances, test substances, doses of the test substances, and the number of test animals were shown in Table 7 below.
C57BL/6 mice used in the test were supplied from the Orient Bio Gapyeong Center (699-13, Mokdong-ri, Buk-yeon, Gapyeong-gun, Gyeonggi-do), and about 6-week-old during obtaining. For about 7 days after obtaining, the rats were quarantined and purified and then healthy animals were used for the test. When the induced material was administered, the test animals were about 8-week-old, and 52 mice were used. The test animals were bred in the 2nd floor of Clean Animal Room, Bioscience Research Institute, Research Institute of Medical Science at Inha University, and circulated in at least 10 times/hour and bred under conditions of a temperature of 22-4° C., relative humidity of 50±20%, and illuminance of 150 to 300 Lux of lighting on for 12 hours (lighting: 08:00 to 20:00). A radiation solid feed (FeedLab GMO Free Rodent Diet GF2005) for rodents was free-taken using a feeder and water sterilized by an ultraviolet-ray flowing water sterilizer and high-pressure vapor after reverse osmosis was free-taken using a polysulfonate-made drinking water bottle (300 ml).
In order to induce ulcerative colitis, 2% DSS was added in drinking water of mice and continuously supplied for first 7 days of every test cycle (3 weeks). The test substances were orally administered 2 times a day, 5 days a week, and for a total of 6 weeks at the same time of second DSS induction (FIG. 14). […]
In order to evaluate a treatment effect of test substances on ulcerative colitis, after the end of the test, the animal was anesthetized, opened, and bled and then a histopathological test was performed for each individual. Histopathological findings were subdivided and scored into severity changes of inflammation, crypt cell damage, ulcer, edema, and fibrosis as shown in Table 8 below. […]
Statistical analysis was performed using Graphpad Prism version 8.01, and a minimum unit of significance was set to p<0.05. Since all measured histopathological indexes were nonparametric data, the indexes were represented by a median, 25% to 75% values (in the box), and minimum-maximum values (both ends) in the graph (FIGS. 15 to 20). […]

Row | Compound | AUCinf [1] [µg·min/mL] | AUClast [1] [µg·min/mL] | Cmax [1] [ng/mL] | Tmax [1] [min] | Tmax ([1]; listed as vactosertib aqueous solution) | half-life ([1]; SD, rat, plasma, po, 10 mg/kg) [min] | Cmax ([1]; SD, rat, plasma, po, 10 mg/kg, read-out: maximum plasma concentration Cmax) [ng/mL] | elution rate ([2]; 0.1 N HCl solution (pH 1.2), 0.1% Tween80) | elution rate ([2]; at a higher pH than pH 1.2) | t1/2 [1] [min] | Adsorption rate [3] [%] | reduction of IL-6 staining area as compared with G2 group (interleukin 6 (IL-6)) [%] | median of inflammation index compared with positive control group (G2) ([4]; FIG. 15) | median of crypt cell damage index compared with positive control group (G2) ([4]; FIG. 16) | median of ulcer index compared with positive control group (G2) ([4]; FIG. 17) | median of fibrosis index compared with positive control group (G2) ([4]; FIG. 19) | median of summed severity scores (except fibrosis) compared with positive control group (G2) ([4]; FIG. 20)
1 | Cc1cccc(-c2[nH]c(CNc3ccccc3F)nc2-c2ccc3ncnn3c2)n1 [Vactosertib aqueaous solution] | 111.97 ± 33.28 | 111.73 ± 33.05 | 2770 ± 550 | 15 ± 0 | 15 min and 15 ± 0 min | 45.9 ± 6.84 | 2770 ± 550 |  |  |  |  |  |  |  |  |  | 
2 | Cc1cccc(-c2[nH]c(CNc3ccccc3F)nc2-c2ccc3ncnn3c2)n1 [Vactosertib powder] | 45.46 ± 27.67 | 44.65 ± 28.60 | 610 ± 570 | 67.5 ± 75 |  |  |  | rapidly eluted | significantly decreased | 51.96 ± 21.93 |  |  |  |  |  |  | 
3 | Cc1cccc(-c2[nH]c(CNc3ccccc3F)nc2-c2ccc3ncnn3c2)n1 [vactosertib, N-((4-([1,2,4]triazolo[1,5-a]pyridine-6-yl)-5-(6-methylpyridin-2-yl)-1H-imidazol-2-yl)methy 1)-2-fluoroaniline] |  |  |  |  |  |  |  |  |  |  | 28.0 ± 0.8 | 23.0 | slightly low | low in a median of a crypt cell damage index, but had no statistical significance | low in a median of an ulcer index, but had no statistical significance | slightly low | low in a median of an ulcer index, but had no statistical significance
